IC50 data for eleven compounds are collected here from patent publication US20260070945A1, “MACROCYCLIC IMMUNOMODULATORS” (Bristol-Myers Squibb Company, priority 2022, published 2026).

Broadly, the IC50 is the concentration that inhibits the measured activity by half.

*1 amine or outer side, *2 acyl side, *3 side chain or, on linkers, in order; H or OH if unused. Where a SMILES comes first, the peptide text is derived from it. Bridges are numbered along the chain shown (N, C = ends). [ ]: non-standard residue; d: D form. The star is where a group is joined. Phe(4-CH2NH2) = NCc1ccc(C[C@H](N)C(=O)O)cc1; Bip = N[C@@H](Cc1ccc(-c2ccccc2)cc1)C(=O)O; Phe(3-Me) = Cc1cccc(C[C@H](N)C(=O)O)c1; Gly(decyl) = CCCCCCCCCC[C@H](N)C(=O)O; NH(CH2)8CO = O=C(CCCCCCCCN[*:1])[*:2]; Cha = N[C@@H](CC1CCCCC1)C(=O)O; 12Ado = NCCCCCCCCCCCC(=O)O; Carboxymethyl = O=C(O)C*; NMeA = CN[C@@H](C)C(=O)O; Orn = NCCC[C@H](N)C(=O)O; Aun = NCCCCCCCCCCC(=O)O; Dab = NCC[C@H](N)C(=O)O; AEEA = NCCOCCOCC(=O)O; Ac3c = NC1(C(=O)O)CC1; Aoc = NCCCCCCCC(=O)O

In the test the target is T1, PD-1/PD-L1 interaction (PE-labeled human PD-L1-Ig binding to Jurkat cell line over-expressing human PD-1) (Homo sapiens, UniProt Q15116).
T1 construct: expressed in transfected cells; host or cells: Jurkat
T1 sequence (Q15116 25-288): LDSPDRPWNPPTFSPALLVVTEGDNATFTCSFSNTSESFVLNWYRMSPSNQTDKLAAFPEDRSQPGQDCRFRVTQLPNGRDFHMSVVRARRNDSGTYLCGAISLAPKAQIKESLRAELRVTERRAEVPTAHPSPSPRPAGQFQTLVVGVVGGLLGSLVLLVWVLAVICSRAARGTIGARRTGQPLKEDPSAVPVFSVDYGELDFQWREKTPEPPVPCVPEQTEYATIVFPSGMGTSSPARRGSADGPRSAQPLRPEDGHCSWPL
The test can be described thus: Jurkat-PD-1 Cell Binding High-Content Screening Assay (CBA). As to conditions: PE-labeled PD-L1-Ig 20 nM final, Jurkat-hPD-1 cells; read-out: Jurkat HPD1 PDL1 IC50. A digest of the protocol: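 Jurkat-hPD-1 cells (8×10^3/well) in DMEM with 10% fetal calf serum were preincubated with compound for 2 h at 37 °C. PE-labeled PD-L1-Ig was then added at 20 nM final for 1 h. Cells were fixed in paraformaldehyde with Hoechst 33342, washed and imaged by high-content imaging.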
With `Cc1cccc(C[C@@H]2NC(=O)[C@H](CC(=O)O)NC(=O)[C@H](Cc3ccc(OCC(=O)O)cc3)NC(=O)[C@H]([C@@H](C)O)NC(=O)CSC[C@@H](C(=O)N[C@@H](CCN)C(=O)NCCOCCOCC(=O)NCCCCCCCCCCCC(=O)O)NC(=O)[C@H](CCC(=O)O)NC(=O)[C@H](C(C)C)NC(=O)[C@H](CC3CCCCC3)NC(=O)[C@H](CCN)NC(=O)[C@@H](CC(C)C)NC(=O)[C@H](C)N(C)C(=O)[C@H](Cc3ccc(O)cc3)NC(=O)[C@H](Cc3ccc(-c4ccccc4)cc3)NC(=O)[C@H](Cc3ccc(OCC(=O)O)cc3)NC2=O)c1` [Example 2665] ({CH2CO}-TY(Carboxymethyl)D[Phe(3-Me)]Y(Carboxymethyl)[Bip]Y[NMeA][dL][Dab][Cha]VEC[Dab][AEEA][12Ado]-OH; thioether N-14), the half-inhibitory concentration (IC50) is 1.2 nM.

Consider `Cc1cccc(C[C@@H]2NC(=O)[C@H](CC(=O)O)NC(=O)[C@H](Cc3ccc(OCC(=O)O)cc3)NC(=O)[C@H]([C@@H](C)O)NC(=O)CSC[C@@H](C(=O)N[C@@H](CCN)C(=O)NCCOCCOCC(=O)NCCCCCCCCCCCC(=O)O)NC(=O)[C@H](CCC(=O)O)NC(=O)[C@H](C(C)C)NC(=O)[C@H](CC3CCCCC3)NC(=O)[C@H](CCN)NC(=O)[C@@H](CC(C)C)NC(=O)[C@H](C)N(C)C(=O)[C@H](Cc3ccc(OCC(=O)O)cc3)NC(=O)[C@H](Cc3ccc(-c4ccccc4)cc3)NC(=O)[C@H](Cc3ccc(O)cc3)NC2=O)c1` [Example 2666] ({CH2CO}-TY(Carboxymethyl)D[Phe(3-Me)]Y[Bip]Y(Carboxymethyl)[NMeA][dL][Dab][Cha]VEC[Dab][AEEA][12Ado]-OH; thioether N-14), for which the IC50 is 0.7 nM.

As to `Cc1cccc(C[C@@H]2NC(=O)[C@H](CC(=O)O)NC(=O)[C@H](Cc3ccc(O)cc3)NC(=O)[C@H]([C@@H](C)O)NC(=O)CSC[C@@H](C(=O)N[C@@H](CCN)C(=O)NCCOCCOCC(=O)NCCCCCCCCCCCC(=O)O)NC(=O)[C@H](CCC(=O)O)NC(=O)[C@H](C(C)C)NC(=O)[C@H](CC3CCCCC3)NC(=O)[C@H](CCN)NC(=O)[C@@H](CC(C)C)NC(=O)[C@H](C)N(C)C(=O)[C@H](Cc3ccc(OCC(=O)O)cc3)NC(=O)[C@H](Cc3ccc(-c4ccccc4)cc3)NC(=O)[C@H](Cc3ccc(OCC(=O)O)cc3)NC2=O)c1` [Example 2667] ({CH2CO}-TYD[Phe(3-Me)]Y(Carboxymethyl)[Bip]Y(Carboxymethyl)[NMeA][dL][Dab][Cha]VEC[Dab][AEEA][12Ado]-OH; thioether N-14), the half-inhibitory concentration (IC50) is 0.3 nM.

As for `Cc1cccc(C[C@@H]2NC(=O)[C@H](CC(=O)O)NC(=O)[C@H](Cc3ccc(OCC(=O)O)cc3)NC(=O)[C@H]([C@@H](C)O)NC(=O)CSC[C@@H](C(=O)N[C@@H](CCN)C(=O)NCCOCCOCC(=O)NCCCCCCCCCCCC(=O)O)NC(=O)[C@@H](CCC(=O)O)NC(=O)[C@H](C(C)C)NC(=O)[C@H](CC3CCCCC3)NC(=O)[C@H](CCN)NC(=O)[C@@H](CC(C)C)NC(=O)[C@H](C)N(C)C(=O)[C@H](Cc3ccc(OCC(=O)O)cc3)NC(=O)[C@H](Cc3ccc(-c4ccccc4)cc3)NC(=O)[C@H](Cc3ccc(OCC(=O)O)cc3)NC2=O)c1` [Example 2668] ({CH2CO}-TY(Carboxymethyl)D[Phe(3-Me)]Y(Carboxymethyl)[Bip]Y(Carboxymethyl)[NMeA][dL][Dab][Cha]V[dE]C[Dab][AEEA][12Ado]-OH; thioether N-14), the IC50 was 2.6 nM.

As for `Cc1cccc(C[C@@H]2NC(=O)[C@H](CC(=O)O)NC(=O)[C@H](Cc3ccc(OCC(=O)O)cc3)NC(=O)[C@H]([C@@H](C)O)NC(=O)CSC[C@@H](C(=O)N[C@@H](CCN)C(=O)NCCOCCOCC(=O)NCCCCCCCCCCCC(=O)O)NC(=O)[C@H](C)NC(=O)[C@H](C(C)C)NC(=O)[C@H](CC3CCCCC3)NC(=O)[C@H](CCN)NC(=O)[C@@H](CC(C)C)NC(=O)[C@H](C)N(C)C(=O)[C@H](Cc3ccc(OCC(=O)O)cc3)NC(=O)[C@H](Cc3ccc(-c4ccccc4)cc3)NC(=O)[C@H](Cc3ccc(OCC(=O)O)cc3)NC2=O)c1` [Example 2669] ({CH2CO}-TY(Carboxymethyl)D[Phe(3-Me)]Y(Carboxymethyl)[Bip]Y(Carboxymethyl)[NMeA][dL][Dab][Cha]VAC[Dab][AEEA][12Ado]-OH; thioether N-14), the IC50 worked out at 2.4 nM.

Regarding `Cc1cccc(C[C@@H]2NC(=O)[C@H](CC(=O)O)NC(=O)[C@H](Cc3ccc(OCC(=O)O)cc3)NC(=O)[C@H]([C@@H](C)O)NC(=O)CSC[C@@H](C(=O)N[C@@H](CCN)C(=O)NCCOCCOCC(=O)NCCCCCCCCCCCC(=O)O)NC(=O)[C@@H](C)NC(=O)[C@H](C(C)C)NC(=O)[C@H](CC3CCCCC3)NC(=O)[C@H](CCN)NC(=O)[C@@H](CC(C)C)NC(=O)[C@H](C)N(C)C(=O)[C@H](Cc3ccc(OCC(=O)O)cc3)NC(=O)[C@H](Cc3ccc(-c4ccccc4)cc3)NC(=O)[C@H](Cc3ccc(OCC(=O)O)cc3)NC2=O)c1` [Example 2670] ({CH2CO}-TY(Carboxymethyl)D[Phe(3-Me)]Y(Carboxymethyl)[Bip]Y(Carboxymethyl)[NMeA][dL][Dab][Cha]V[dA]C[Dab][AEEA][12Ado]-OH; thioether N-14), the IC50 was 6.6 nM.

Consider `Cc1cccc(C[C@@H]2NC(=O)[C@H](CC(=O)O)NC(=O)[C@H](Cc3ccc(CN)cc3)NC(=O)[C@H]([C@@H](C)O)NC(=O)CSC[C@@H](C(=O)N[C@@H](CCN)C(=O)NCCCCCCCCC(=O)NCCCCCCCCCCC(=O)O)NC(=O)[C@H](CCCN)NC(=O)[C@H](C(C)C)NC(=O)[C@H](CC3CCCCC3)NC(=O)[C@H](CCN)NC(=O)[C@@H](CC(C)C)NC(=O)[C@H](C)N(C)C(=O)[C@H](Cc3ccc(CN)cc3)NC(=O)[C@H](Cc3ccc(-c4ccccc4)cc3)NC(=O)[C@H](Cc3ccc(CN)cc3)NC2=O)c1` [Example 2671] ({CH2CO}-T[Phe(4-CH2NH2)]D[Phe(3-Me)][Phe(4-CH2NH2)][Bip][Phe(4-CH2NH2)][NMeA][dL][Dab][Cha]V[Orn]C[Dab][NH(CH2)8CO][Aun]-OH; thioether N-14), for which the IC50 was 30.1 nM.

On to `Cc1cccc(C[C@@H]2NC(=O)[C@H](CC(=O)O)NC(=O)[C@H](Cc3ccc(OCC(=O)O)cc3)NC(=O)[C@H]([C@@H](C)O)NC(=O)CSC[C@@H](C(=O)N[C@@H](CCN)C(=O)NCCOCCOCC(=O)NCCCCCCCCCCCC(=O)O)NC(=O)C3(CC3)NC(=O)[C@H](C(C)C)NC(=O)[C@H](CC3CCCCC3)NC(=O)[C@H](CCN)NC(=O)[C@@H](CC(C)C)NC(=O)[C@H](C)N(C)C(=O)[C@H](Cc3ccc(OCC(=O)O)cc3)NC(=O)[C@H](Cc3ccc(-c4ccccc4)cc3)NC(=O)[C@H](Cc3ccc(OCC(=O)O)cc3)NC2=O)c1` [Example 2672] ({CH2CO}-TY(Carboxymethyl)D[Phe(3-Me)]Y(Carboxymethyl)[Bip]Y(Carboxymethyl)[NMeA][dL][Dab][Cha]V[Ac3c]C[Dab][AEEA][12Ado]-OH; thioether N-14), for which the IC50 stood at 200 nM.

As to `CCCCCCCCCC[C@@H]1NC(=O)[C@H](C(C)C)NC(=O)[C@H](CC2CCCCC2)NC(=O)[C@H](CCN)NC(=O)[C@@H](CC(C)C)NC(=O)[C@H](C)N(C)C(=O)[C@H](Cc2ccc(OCC(=O)O)cc2)NC(=O)[C@H](Cc2ccc(-c3ccccc3)cc2)NC(=O)[C@H](Cc2ccc(OCC(=O)O)cc2)NC(=O)[C@H](Cc2cccc(C)c2)NC(=O)[C@H](CC(=O)O)NC(=O)[C@H](Cc2ccc(OCC(=O)O)cc2)NC(=O)[C@H]([C@@H](C)O)NC(=O)CSC[C@@H](C(=O)N[C@@H](CCN)C(=O)NCCOCCOCC(=O)NCCCCCCCCCCCC(=O)O)NC1=O` [Example 2673] ({CH2CO}-TY(Carboxymethyl)D[Phe(3-Me)]Y(Carboxymethyl)[Bip]Y(Carboxymethyl)[NMeA][dL][Dab][Cha]V[Gly(decyl)]C[Dab][AEEA][12Ado]-OH; thioether N-14), the IC50 was found to be 90.3 nM.

Turning to `Cc1cccc(C[C@@H]2NC(=O)[C@H](CC(=O)O)NC(=O)[C@H](Cc3ccc(OCC(=O)O)cc3)NC(=O)[C@H]([C@@H](C)O)NC(=O)CSC[C@@H](C(=O)N[C@@H](CCN)C(=O)NCCOCCOCC(=O)NCCCCCCCCCCCC(=O)O)NC(=O)[C@H](Cc3ccc(-c4ccccc4)cc3)NC(=O)[C@H](C(C)C)NC(=O)[C@H](CC3CCCCC3)NC(=O)[C@H](CCN)NC(=O)[C@@H](CC(C)C)NC(=O)[C@H](C)N(C)C(=O)[C@H](Cc3ccc(OCC(=O)O)cc3)NC(=O)[C@H](Cc3ccc(-c4ccccc4)cc3)NC(=O)[C@H](Cc3ccc(OCC(=O)O)cc3)NC2=O)c1` [Example 2674] ({CH2CO}-TY(Carboxymethyl)D[Phe(3-Me)]Y(Carboxymethyl)[Bip]Y(Carboxymethyl)[NMeA][dL][Dab][Cha]V[Bip]C[Dab][AEEA][12Ado]-OH; thioether N-14), the IC50 turned out to be 21.3 nM.

For the compound `CC(=O)NCC[C@H](NC(=O)[C@@H]1CSCC(=O)N[C@@H]([C@@H](C)O)C(=O)N[C@@H](Cc2ccc(OCC(=O)O)cc2)C(=O)N[C@@H](CC(=O)O)C(=O)N[C@@H](Cc2cccc(C)c2)C(=O)N[C@@H](Cc2ccc(OCC(=O)O)cc2)C(=O)N[C@@H](Cc2ccc(-c3ccccc3)cc2)C(=O)N[C@@H](Cc2ccc(OCC(=O)O)cc2)C(=O)N(C)[C@@H](C)C(=O)N[C@H](CC(C)C)C(=O)N[C@@H](CCNC(C)=O)C(=O)N[C@@H](CC2CCCCC2)C(=O)N[C@@H](C(C)C)C(=O)N[C@@H](CCC(=O)O)C(=O)N1)C(=O)NCCCCCCCC(=O)NCCCCCCCCCCCC(=O)O` [Example 2676] ({CH2CO}-TY(Carboxymethyl)D[Phe(3-Me)]Y(Carboxymethyl)[Bip]Y(Carboxymethyl)[NMeA][dL][Dab](Ac)[Cha]VEC[Dab](Ac)[Aoc][12Ado]-OH; thioether N-14), the IC50 was found to be 503 nM.
